Target: soluble guanylate cyclase (sGC) (Homo sapiens (Human), UniProt Q02108+Q02153)
Assay: sGC-HEK-cGMP assay, new protocol with DETA-NONOate, LC/MS detection (Example 2C)
Assay type: cell-based
Details: HEK293 cells, 10 μM DETA-NONOate, LC/MS detection; concentration eliciting 50% of high control response (30 μM I-329); read-out: Absolute EC50 (uM) - binned
Description: Human embryonic kidney cells (HEK293), endogenously expressing soluble guanylate cyclase (sGC), were used to evaluate the activity of test compounds. Compounds stimulating the sGC enzyme should cause an increase in the intracellular concentration of cGMP. HEK 293 cells were seeded in Dulbecco's Modification of Eagle's Medium supplemented with fetal bovine serum (10% final) and penicillin (100 U/mL)/streptomycin (100 μg/mL) in a 50 μL volume at a density of 1.5×10^4 cells/well in a poly-D-lysine coated 384 well flat bottom plate. Cells were incubated overnight at 37° C. in a humidified chamber with 5% CO2. Medium was aspirated and cells were washed with 1× Hank's Buffered Saline Salt Solution (50 μL). Cells were then incubated for 15 minutes at 37° C. with 50 μL of a 0.5 mM 3-isobutyl-1-methylxanthine (IBMX) solution. Test article and Diethylenetriamine NONOate (DETA-NONOate) solutions (x μM concentration for test article solution and 10 μM concentration for DETA-NONOate solution; wherein x is one of the following concentrations);
were then added to the assay mixture and the resulting mixture incubated at 37° C. for 20 minutes. After the 20 minute incubation, the assay mixture was aspirated and 10% acetic acid containing 150 ng/mL+3-cGMP (internal standard for LCMS) (50 μL) was added to the cells. The plate was incubated at 4° C. for 30 minutes in the acetic acid solution to stop the reaction and lyse the cells. The plates were then centrifuged at 1,000 g for 3 minutes at 4° C. and the supernatant transferred to a clean reaction plate for LCMS analysis.
cGMP concentrations were determined from each sample using the LCMS conditions below (Table 5) and calculated standard curve.
Data were normalized to a high control using the following equation: 100*(Sample−Low Control)/(High Control−Low Control), where the low control is the average of 16 samples treated with 1% DMSO, and the high control is the average of 16 samples treated with 30 μM of 1-329 Data were fit using a 4-parameter fit (log(agonist) vs. response—variable slope) using GraphPad Prism Software v.5. n=2 for all compounds. […] Compounds failing to elicit a minimum response of 50% are reported as >30 μM.

Chain of soluble guanylate cyclase (sGC) (Q02153 whole entry): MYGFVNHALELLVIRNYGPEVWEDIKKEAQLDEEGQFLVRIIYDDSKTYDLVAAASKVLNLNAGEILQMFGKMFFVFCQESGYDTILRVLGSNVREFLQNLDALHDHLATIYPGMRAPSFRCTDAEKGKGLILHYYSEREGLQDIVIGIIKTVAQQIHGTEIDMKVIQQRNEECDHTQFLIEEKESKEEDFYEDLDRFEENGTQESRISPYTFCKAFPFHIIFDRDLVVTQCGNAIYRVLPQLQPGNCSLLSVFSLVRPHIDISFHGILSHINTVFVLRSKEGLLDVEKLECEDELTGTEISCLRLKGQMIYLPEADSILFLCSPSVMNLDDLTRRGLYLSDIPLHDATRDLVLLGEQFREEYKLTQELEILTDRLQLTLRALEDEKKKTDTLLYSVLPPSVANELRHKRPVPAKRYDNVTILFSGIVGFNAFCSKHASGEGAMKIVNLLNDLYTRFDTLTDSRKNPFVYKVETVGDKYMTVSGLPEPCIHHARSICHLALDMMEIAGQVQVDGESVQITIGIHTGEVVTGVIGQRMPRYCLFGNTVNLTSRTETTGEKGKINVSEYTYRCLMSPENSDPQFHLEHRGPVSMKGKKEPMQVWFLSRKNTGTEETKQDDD
Chain of soluble guanylate cyclase (sGC) (Q02108 whole entry): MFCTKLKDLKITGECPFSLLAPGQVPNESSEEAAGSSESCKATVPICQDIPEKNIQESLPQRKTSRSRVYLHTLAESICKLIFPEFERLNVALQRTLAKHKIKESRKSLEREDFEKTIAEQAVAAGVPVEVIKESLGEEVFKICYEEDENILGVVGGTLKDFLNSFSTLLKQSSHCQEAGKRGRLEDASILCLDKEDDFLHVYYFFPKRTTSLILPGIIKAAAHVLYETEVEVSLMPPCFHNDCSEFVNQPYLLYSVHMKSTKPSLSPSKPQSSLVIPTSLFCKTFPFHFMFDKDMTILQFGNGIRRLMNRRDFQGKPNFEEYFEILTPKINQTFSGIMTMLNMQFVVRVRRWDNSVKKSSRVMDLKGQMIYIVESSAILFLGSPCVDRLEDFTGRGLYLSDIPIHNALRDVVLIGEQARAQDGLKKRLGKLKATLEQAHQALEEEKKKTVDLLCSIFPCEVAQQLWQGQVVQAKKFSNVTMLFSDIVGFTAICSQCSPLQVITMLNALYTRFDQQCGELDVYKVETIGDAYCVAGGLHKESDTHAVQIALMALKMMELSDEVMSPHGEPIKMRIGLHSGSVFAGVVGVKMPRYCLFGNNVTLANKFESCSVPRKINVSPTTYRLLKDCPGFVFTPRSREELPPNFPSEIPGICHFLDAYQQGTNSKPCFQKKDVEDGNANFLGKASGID

| SMILES | EC50 [µM] |
| --- | --- |
| O=S(=O)(CC(F)(F)F)Nc1ccnc(-c2cc(-c3ccon3)n(Cc3ccccc3F)n2)n1 [Compound I-444] | 0.101 to 1 |

Same assay, conditions: read-out: Absolute EC50 (uM) - binned

| SMILES | EC50 [µM] |
| --- | --- |
| OC1(C(F)(F)F)CN(c2nc(-c3cc(-c4ccon4)n(Cc4ccccc4F)n3)ncc2F)C1 [Compound I-396] | < 0.1 |
| Fc1ccccc1Cn1nc(-c2ncc(F)c(NCCSC(F)(F)F)n2)cc1-c1ccon1 [Compound I-509] | < 0.1 |
| O=C(CNC(=O)OCc1ccccc1)Nc1ccnc(-c2cc(-c3ccon3)n(Cc3ccccc3F)n2)n1 [Compound I-598] | > 1 |
| O=C1CCS(=O)(=O)N1c1nc(-c2cc(-c3ccon3)n(Cc3ccccc3F)n2)ncc1F [Compound I-612] | < 0.1 |
| C[C@H]1CCCN(c2nc(-c3cc(-c4ccon4)n(Cc4ccccc4F)n3)ncc2F)[C@@H]1C(=O)NS(=O)(=O)C1CC1 [Compound I-332] | < 0.1 |
| CS(=O)(=O)CCC(Nc1nc(-c2cc(-c3ccon3)n(Cc3ccccc3F)n2)ncc1F)C(F)(F)F (stereo not drawn) [Compound I-588] | 0.101 to 1 |
| O=C(Nc1ccnc(-c2cc(-c3ccon3)n(Cc3ccccc3F)n2)n1)c1cc(C2CC2)n[nH]1 [Compound I-564] | > 1 |
| OC(CNc1nc(-c2cc(-c3ccon3)n(CCC(F)(F)F)n2)ncc1F)(C(F)(F)F)C(F)(F)F [Compound I-516] | > 1 |
| O=S(=O)(CCO)Nc1ccnc(-c2cc(-c3ccon3)n(Cc3ccccc3F)n2)n1 [Compound I-539] | > 1 |
| O=S(=O)(CC(F)(F)F)Nc1ccnc(-c2cc(-c3ccon3)n(Cc3ccccc3F)n2)n1 [Compound I-444] | 0.101 to 1 |
| Nc1nc(-c2cc(-c3ccon3)n(Cc3ccccc3F)n2)nc2c1CS(=O)(=O)C2 [Compound I-632] | > 1 |
| O=C(NS(=O)(=O)C1CCN(c2nc(-c3cc(-c4ccon4)n(Cc4ccccc4F)n3)ncc2F)CC1)C1CC1 [Compound I-425] | < 0.1 |
| O=S(=O)(C1CCN(c2nc(-c3cc(-c4ccon4)n(Cc4ccccc4F)n3)ncc2F)CC1)N1CCOCC1 [Compound I-423] | < 0.1 |
| Cc1cc(-c2ncc(F)c(N3CCC[C@H](C)[C@@H]3C(=O)O)n2)nn1Cc1ccccc1F [Compound I-412] | > 1 |
| CC1(C(=O)NC2CC2)CCN(c2nc(-c3cc(-c4ccon4)n(Cc4ccccc4F)n3)ncc2F)C1=O (stereo not drawn) [Compound I-605] | 0.101 to 1 |
| O=S(=O)(CC(F)(F)F)Nc1nc(-c2cc(-c3ccon3)n(Cc3ccccc3F)n2)ncc1F [Compound I-609] | > 1 |
| O=S(=O)(Cc1ccc(F)cc1)Nc1ccnc(-c2cc(-c3ccon3)n(Cc3ccccc3F)n2)n1 [Compound I-491] | 0.101 to 1 |
| O=C1NCC[C@@H]1Nc1nc(-c2cc(-c3ccon3)n(Cc3ccccc3F)n2)ncc1F [Compound I-356] | 0.101 to 1 |
| CO[C@H](C(=O)Nc1ccnc(-c2cc(-c3ccon3)n(Cc3ccccc3F)n2)n1)c1ccccc1 [Compound I-559] | 0.101 to 1 |
| NC(CNc1nc(-c2cc(-c3ccon3)n(Cc3ccccc3F)n2)ncc1F)C(F)(F)F (stereo not drawn) [Compound I-518] | < 0.1 |
| OCC1(Nc2nc(-c3cc(-c4ccon4)n(Cc4ccccc4F)n3)ncc2F)CC1 [Compound I-502] | 0.101 to 1 |
| CC1(C)CCN(c2ccnc(-c3cc(-c4ccon4)n(Cc4ccccc4F)n3)n2)C1=O [Compound I-494] | 0.101 to 1 |
| CC1(C(N)=O)C(=O)Nc2nc(-c3cc(-c4ccon4)n(CCC(F)(F)F)n3)nc(N)c21 (stereo not drawn) [Compound I-619] | > 1 |
| OC(C1CN(c2nc(-c3cc(-c4ccon4)n(Cc4ccccc4F)n3)ncc2F)C1)(C(F)(F)F)C(F)(F)F [Compound I-357] | > 1 |
| OCC(CO)(CO)Nc1nc(-c2cc(-c3ccon3)n(Cc3ccccc3F)n2)ncc1F [Compound I-334] | 0.101 to 1 |
| O=C(CC(F)(F)F)Nc1ccnc(-c2cc(-c3ccon3)n(Cc3ccccc3F)n2)n1 [Compound I-471] | 0.101 to 1 |
| O=C(O)C(Nc1nc(-c2cc(-c3ccon3)n(Cc3ccccc3F)n2)ncc1F)C(F)(F)F (stereo not drawn) [Compound I-403] | 0.101 to 1 |
| COC(=O)NCC(=O)Nc1ccnc(-c2cc(-c3ccon3)n(Cc3ccccc3F)n2)n1 [Compound I-603] | 0.101 to 1 |
| CN(CC1(C(=O)O)CC1)c1nc(-c2cc(-c3cscn3)n(Cc3ccccc3F)n2)ncc1F [Compound I-345] | < 0.1 |
